Like-named read-outs stand apart in the source and are kept apart here. Values belong to the compound of their own block, whether it stands above or below them.
Experiments:
Format in all cases: cell-based
[1] = system: HEK293 pGL4; assay: Firefly_pGL signal, cmpd/DMSO (pGL4 control cells); conditions: Homo sapiens
[2] = target: T1, NR2F6 (Homo sapiens, UniProt P10588); assay: NR2F6 agonist screening, Firefly signal cmpd/DMSO; conditions: for Activity, cmpd/DMSO: Table 31
T1 construct: expressed in transfected cells; also transient transfection
T1 sequence (P10588 1-404): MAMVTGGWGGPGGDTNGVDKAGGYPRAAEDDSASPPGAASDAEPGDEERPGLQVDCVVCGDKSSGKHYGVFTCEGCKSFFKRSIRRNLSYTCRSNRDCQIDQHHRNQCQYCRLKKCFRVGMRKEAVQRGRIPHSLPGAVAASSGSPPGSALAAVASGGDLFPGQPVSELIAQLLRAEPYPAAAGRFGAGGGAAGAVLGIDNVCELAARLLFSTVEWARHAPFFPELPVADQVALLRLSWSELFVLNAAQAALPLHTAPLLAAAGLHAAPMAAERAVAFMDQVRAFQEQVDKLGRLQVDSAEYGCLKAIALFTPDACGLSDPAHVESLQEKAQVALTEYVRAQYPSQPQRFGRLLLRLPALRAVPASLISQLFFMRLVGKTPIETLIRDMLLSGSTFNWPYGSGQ

[3] = target: T2, NR2F6 LBD (Homo sapiens, UniProt P10588); assay: NR2F6 LBD transient transfection; conditions: LBD
T2 construct: expressed in transfected cells
T2 sequence (P10588 165-393 limits assumed): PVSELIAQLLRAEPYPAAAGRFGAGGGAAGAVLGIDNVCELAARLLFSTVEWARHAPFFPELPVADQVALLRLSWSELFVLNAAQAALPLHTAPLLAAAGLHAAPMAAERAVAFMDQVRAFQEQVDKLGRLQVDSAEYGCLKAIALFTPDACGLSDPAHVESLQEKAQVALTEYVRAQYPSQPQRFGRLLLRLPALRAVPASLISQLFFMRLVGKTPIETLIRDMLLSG
Outline: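 LBD-transfected cells treated at 40, 10, 2 and 0.5 μM (4 replicates); cytotoxicity measured in parallel, normalized to DMSO (0%) and zero signal (100%). Higher concentrations excluded where signal loss reflected toxicity.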

[4] = system: Renilla; assay: Renilla signal in NR2F6 agonist screening, cmpd/DMSO; conditions: Renilla, F4
[5] = HEK293, 0.5 uM, pGL4, read-out: Firefly pGL4, cmpd/DMSO (mean)
[6] = HEK293, 2 uM, pGL4, read-out: Firefly pGL4, cmpd/DMSO (mean)
[7] = HEK293, 10 uM, pGL4, read-out: Firefly pGL4, cmpd/DMSO (mean)
[8] = HEK293, 40 uM, pGL4, read-out: Firefly pGL4, cmpd/DMSO (mean)
[9] = HEK293, pGL4, 1% FBS, 0.5 uM, read-out: Firefly, pGL4, 1% FBS, cmpd/DMSO (mean)
[10] = HEK293, pGL4, 1% FBS, 2 uM, read-out: Firefly, pGL4, 1% FBS, cmpd/DMSO (mean)
[11] = HEK293, pGL4, 1% FBS, 10 uM, read-out: Firefly, pGL4, 1% FBS, cmpd/DMSO (mean)
[12] = HEK293, pGL4, 1% FBS, 40 uM, read-out: Firefly, pGL4, 1% FBS, cmpd/DMSO (mean)
[13] = HEK293, pGL4, 10% FBS, 0.5 uM, read-out: Firefly, pGL4, 10% FBS, cmpd/DMSO (mean)
[14] = HEK293, pGL4, 10% FBS, 2 uM, read-out: Firefly, pGL4, 10% FBS, cmpd/DMSO (mean)
[15] = HEK293, pGL4, 10% FBS, 10 uM, read-out: Firefly, pGL4, 10% FBS, cmpd/DMSO (mean)
[16] = HEK293, pGL4, 10% FBS, 40 uM, read-out: Firefly, pGL4, 10% FBS, cmpd/DMSO (mean)
[17] = read-out: Renilla, F4, cmpd/DMSO (mean)
[18] = 1% FBS, read-out: Renilla, F4, 1% FBS, cmpd/DMSO (mean)
[19] = 10% FBS, read-out: Renilla, F4, 10% FBS, cmpd/DMSO (mean)

- Firefly F4, cmpd/DMSO (mean) ([2]; 0.5 uM): 1.5
- Firefly F4, cmpd/DMSO (mean) ([2]; 2 uM): 2.3
- Firefly F4, cmpd/DMSO (mean) ([2]; 10 uM): 5.4
- Firefly F4, cmpd/DMSO (mean) ([2]; 40 uM): 0.8
- F4, Firefly/Renilla for S/B(F4) > 3 ([2]; 1% FBS, 10 uM): 2.5
- Firefly, F4/pGL4 for S/B(F4) > 3 ([2]; 1% FBS, 10 uM): 1.7
- F4, Firefly/Renilla for S/B(F4) > 3 ([2]; 10% FBS, 10 uM): 3.6
- Firefly, F4/pGL4 for S/B(F4) > 3 ([2]; 10% FBS, 10 uM): 2.7
- Firefly, F4, 1% FBS, cmpd/DMSO (mean) ([2]; 1% FBS, 0.5 uM): 0.9
- Firefly, F4, 1% FBS, cmpd/DMSO (mean) ([2]; 1% FBS, 2 uM): 1.9
- Firefly, F4, 1% FBS, cmpd/DMSO (mean) ([2]; 1% FBS, 10 uM): 4.6
- Firefly, F4, 1% FBS, cmpd/DMSO (mean) ([2]; 1% FBS, 40 uM): 0.5
- Firefly, F4, 10% FBS, cmpd/DMSO (mean) ([2]; 10% FBS, 0.5 uM): 1.6
- Firefly, F4, 10% FBS, cmpd/DMSO (mean) ([2]; 10% FBS, 2 uM): 1.4
- Firefly, F4, 10% FBS, cmpd/DMSO (mean) ([2]; 10% FBS, 10 uM): 7.1
- Firefly, F4, 10% FBS, cmpd/DMSO (mean) ([2]; 10% FBS, 40 uM): 1.7
- Activity, cmpd/DMSO [2]: 5.2
- Firefly LBD, cmpd/DMSO (mean) ([3]; 0.5 uM): 1.2
- Firefly LBD, cmpd/DMSO (mean) ([3]; 2 uM): 1.7
- Firefly LBD, cmpd/DMSO (mean) ([3]; 10 uM): 4.0
- Firefly LBD, cmpd/DMSO (mean) ([3]; 40 uM): 0.7
SMILES: CC1CCN([C@H]2CS(=O)(=O)C[C@@H]2S(=O)(=O)c2cccs2)CC1 [Compound D106]
- fold induction at 0.5 µM [1, 5]: 1.1
- fold induction at 2 µM [1, 6]: 1.6
- fold induction at 10 µM [1, 7]: 3.6
- fold induction at 40 µM [1, 8]: 0.7
- fold induction at 0.5 µM [1, 9]: 1.1
- fold induction at 2 µM [1, 10]: 1.8
- fold induction at 10 µM [1, 11]: 2.8
- fold induction at 40 µM [1, 12]: 0.8
- fold induction at 0.5 µM [1, 13]: 0.9
- fold induction at 2 µM [1, 14]: 1.2
- fold induction at 10 µM [1, 15]: 2.7
- fold induction at 40 µM [1, 16]: 1.2
- fold induction at 0.5 µM [4, 17]: 1
- fold induction at 2 µM [4, 17]: 1.2
- fold induction at 10 µM [4, 17]: 1.7
- fold induction at 40 µM [4, 17]: 0.5
- fold induction at 0.5 µM [4, 18]: 1.2
- fold induction at 2 µM [4, 18]: 1.4
- fold induction at 10 µM [4, 18]: 1.9
- fold induction at 40 µM [4, 18]: 1.1
- fold induction at 0.5 µM [4, 19]: 1.2
- fold induction at 2 µM [4, 19]: 1.1
- fold induction at 10 µM [4, 19]: 2
- fold induction at 40 µM [4, 19]: 2

- Firefly F4, cmpd/DMSO (mean) ([2]; 0.5 uM): 1.5
- Firefly F4, cmpd/DMSO (mean) ([2]; 2 uM): 1.9
- Firefly F4, cmpd/DMSO (mean) ([2]; 10 uM): 5.5
- Firefly F4, cmpd/DMSO (mean) ([2]; 40 uM): 1.1
- F4, Firefly/Renilla for S/B(F4) > 3 ([2]; 1% FBS, 10 uM): 3.0
- Firefly, F4/pGL4 for S/B(F4) > 3 ([2]; 1% FBS, 10 uM): 1.9
- F4, Firefly/Renilla for S/B(F4) > 3 ([2]; 10% FBS, 10 uM): 2.0
- Firefly, F4/pGL4 for S/B(F4) > 3 ([2]; 10% FBS, 10 uM): 1.2
- F4, Firefly/Renilla for S/B(F4) > 3 ([2]; 10% FBS, 40 uM): 1.8
- Firefly, F4/pGL4 for S/B(F4) > 3 ([2]; 10% FBS, 40 uM): 3.4
- Firefly, F4, 1% FBS, cmpd/DMSO (mean) ([2]; 1% FBS, 0.5 uM): 0.7
- Firefly, F4, 1% FBS, cmpd/DMSO (mean) ([2]; 1% FBS, 2 uM): 1.3
- Firefly, F4, 1% FBS, cmpd/DMSO (mean) ([2]; 1% FBS, 10 uM): 5.0
- Firefly, F4, 1% FBS, cmpd/DMSO (mean) ([2]; 1% FBS, 40 uM): 0.5
- Firefly, F4, 10% FBS, cmpd/DMSO (mean) ([2]; 10% FBS, 0.5 uM): 0.9
- Firefly, F4, 10% FBS, cmpd/DMSO (mean) ([2]; 10% FBS, 2 uM): 1.4
- Firefly, F4, 10% FBS, cmpd/DMSO (mean) ([2]; 10% FBS, 10 uM): 3.3
- Firefly, F4, 10% FBS, cmpd/DMSO (mean) ([2]; 10% FBS, 40 uM): 5.4
- Activity, cmpd/DMSO [2]: 6.6
- Firefly LBD, cmpd/DMSO (mean) ([3]; 0.5 uM): 1.1
- Firefly LBD, cmpd/DMSO (mean) ([3]; 2 uM): 2.1
- Firefly LBD, cmpd/DMSO (mean) ([3]; 10 uM): 4.3
- Firefly LBD, cmpd/DMSO (mean) ([3]; 40 uM): 0.4
SMILES: CCCCN(C)[C@H]1CS(=O)(=O)C[C@@H]1S(=O)(=O)c1ccc(Cl)cc1 [Compound D132]
- fold induction at 0.5 µM [1, 5]: 1.6
- fold induction at 2 µM [1, 6]: 1.6
- fold induction at 10 µM [1, 7]: 4.9
- fold induction at 40 µM [1, 8]: 0.5
- fold induction at 0.5 µM [1, 9]: 1
- fold induction at 2 µM [1, 10]: 1.6
- fold induction at 10 µM [1, 11]: 2.6
- fold induction at 40 µM [1, 12]: 0.8
- fold induction at 0.5 µM [1, 13]: 0.9
- fold induction at 2 µM [1, 14]: 1.3
- fold induction at 10 µM [1, 15]: 2.7
- fold induction at 40 µM [1, 16]: 1.6
- fold induction at 0.5 µM [4, 17]: 1
- fold induction at 2 µM [4, 17]: 1.2
- fold induction at 10 µM [4, 17]: 1.7
- fold induction at 40 µM [4, 17]: 1.3
- fold induction at 0.5 µM [4, 18]: 1.1
- fold induction at 2 µM [4, 18]: 1.3
- fold induction at 10 µM [4, 18]: 1.7
- fold induction at 40 µM [4, 18]: 1.7
- fold induction at 0.5 µM [4, 19]: 0.9
- fold induction at 2 µM [4, 19]: 1.1
- fold induction at 10 µM [4, 19]: 1.6
- fold induction at 40 µM [4, 19]: 3

From patent US11377442B2, “Small molecule agonists and antagonists of NR2F6 activity” (ZANDER THERAPEUTICS, INC., priority 2016, dated 2022)
